From patent publication US20050112573A1, “Method of detecting toxic substance” (priority 2001, published 2005)
Where two headings read alike, the source gives them in different places.

How the values were obtained:
Type in all cases: cell-based, Saccharomyces cerevisiae W303
[1] = test system: promoter of yeast gene YOR382w
Excerpt: (§1) The inventors of the present application understood that the induction of certain yeast genes by toxic substances is caused by the activation of the promoters of the genes by the toxic substances. Thus, the inventors prepared a vector that comprised a polynucleotide sequence comprising the promoter of the yeast gene, which sequence is operably linked to a polynucleotide encoding a marker protein; and transformed yeast cells with the vector. […] The working examples hereinafter illustrate the preparation of such vectors, transformation of yeast cells by use of said vectors, and the detection of toxic substances by use of the transformed cells.
(§2) Promoter assay is a method for determining variations of the level of intracellular genes without destroying cells on the basis of the level of expressed marker genes instead of the expressed mRNA. The gene selected to detect a chemical substance is expressed in the absence of chemical substances, and thus a marker protein also occurs in the absence of chemical substances. In the method according to the present invention, the behavior of yeast genes on the addition of test materials is determined on the basis of the level of expressed marker protein so that the presence or the absence, and the kind of toxic chemical substances are predicted. Thus, it is desired that the production of marker proteins is lower in the absence of chemical substances, and the production of marker proteins is higher in the presence of chemical substances.
(§3) Type YEp shuttle vector pYES2 (pYES2, Cat no: V825-20, Invirtogen Corporation, USA), which can be replicated both in E. coli. and yeast was used as vector (R. W. Old, S. B. Primrose Principles of Gene Manipulation 5th Ed., BAIFUKAN CO., LTD, pp138-165, pp.234-263, 2000). The portion of vector pQBI 63 (Cat no.54-0082, Wako Pure Chemical Industries, Ltd.) corresponding to a marker protein GFP was used as the polynucleotide encoding GFP (SEQ ID No: 6). First, the GFP polynucleotide was inserted into the multiple cloning sites of pYES2 to give a vector. Thereafter, the GAL1 promoter of pYES2 was replaced with the polynucleotide comprising the promoter sequence of the intended yeast gene YOR382w (SEQ ID No: 3) to give an intended plasmid vector. Suitable restriction enzymes were selected, and the insertion of the polynucleotide comprising GFP and the promoter sequence was conducted.
(§4) Next, the yeast Saccharomyces cerevisiae W303 was transformed with the resultant plasmid vector according to the following procedures: • 1) Incubating the yeast Saccharomyces cerevisiae W303 in 200 ml of SD medium under shaking until OD 660 reaches 0.5; • 2) Suspending the collected cells in 5 ml of TE-buffer; • 3) Adding 250 μL of 2.5M lithium acetate; • 4) Dispending each 300 μl, adding 10 μl of above plasmid vector thereto, then incubating the suspensions at 30° C. for 30 minutes; • 5) Adding 700 μl of 50% PEG4000, and incubating the mixture under shaking at 30° C. for 60 minutes; • 6) Giving heat shock (42° C., 5 minutes), and then immediately cooling the mixture; • 7) Washing the mixture twice with 1M sorbitol; and • 8) Seeding it on agar plates made of minimum essential medium.
The cells of SC-YOR382W-pQBI as prepared in Example 4 were contacted to one of the following compounds. The yeast cells SC-YOR382W-pQBI were incubated at 25° C. in SD medium (Yeast nitrogen base without amino acids (Difco 0919-15)+glucose+amino acids (adenine, histidine, tryptophan)). One of toxic chemical substances as shown below was added to the cells at logarithmic growth phase, and then the cells were further incubated for two hours.

[2] = test system: promoter of yeast gene YLL057c; conditions: SC-YLL057C-pQBI cells; summary of Table 13
Excerpt: as §1, §2
as §3, with “PQBI” for “pQBI”, “GALL” for “GAL1”, “YLL057c” for “YOR382w”, “4)” for “3)”
as §4
The cells of SC-YLL057C-pQBI as prepared in Example 5 were contacted to one of the following compounds. The yeast cells SC-YLL057C-pQBI were incubated at 25° C. in SD medium (Yeast nitrogen base without amino acids (Difco 0919-15)+glucose+amino acids (adenine, histidine, tryptophan)). One of toxic chemical substances as shown below was added to the cells at logarithmic growth phase, and then the cells were further incubated for two hours.

[3] = test system: promoter of yeast gene YLR303w; conditions: SC-YCR303W-pQBI cells (so in the source); summary of Table 14
Excerpt: as §1, §2
as §3, with “YLR303w” for “YOR382w”, “5)” for “3)”
as §4
The cells of SC-YCR303W-pQBI as prepared in Example 6 were contacted to one of the following compounds. The yeast cells SC-YCR303W-pQBI were incubated at 25° C. in SD medium (Yeast nitrogen base without amino acids (Difco 0919-15)+glucose+amino acids (adenine, histidine, tryptophan)). One of toxic chemical substances as shown below was added to the cells at logarithmic growth phase, and then the cells were further incubated for two hours.

[4] = SC-YOR382W-pQBI cells, summary of Table 12

| SMILES | expression of GFP [1, 4] | expression of GFP [2] | expression of GFP [3] | expression of GFP [1] |
| --- | --- | --- | --- | --- |
| O=C(O)COc1ccc(Cl)cc1Cl [2,4-dichlorophenoxyacetic acid] | induced the expression of GFP | induced the expression of GFP | induced the expression of GFP | – |
| c1ccc2c(c1)cc1ccc3cccc4ccc2c1c34 [benzo(a)pyrene] | – | – | induced the expression of GFP | – |
| CCCCCCCCCc1ccc(O)cc1 [p-nonylphenol] | induced the expression of GFP | – | – | – |
| Oc1ccccc1 [phenol] | – | – | – | induced the expression of GFP |
